Data set [1] concerns Candida albicans MY 1055. The experiment in a line: Minimum fungicidal concentration (MFC), microbroth dilution assay in YNBD. Format: cell-based. The note with it: YNBD medium; MFC = lowest concentration showing no growth or less than 4 colonies per spot. The source says: (§1) The compounds of the present invention are active against many fungi and as previously indicated particularly against Candida species. The antifungal properties may be illustrated with the minimum fungicidal concentration (MFC) determination against certain Candida organisms in a microbroth dilution assay carried out in a Yeast Nitrogen Base (Difco) medium with 1 percent dextrose (YNBD).
(§2) In carrying out the assay, Compound I was solubilized in 10 percent dimethyl sulfoxide (DMSO) and diluted to 2560 μg/ml. The compound was then diluted to 256 μg/ml in YNBD. 0.15 mL of the suspension was dispensed to the top row of a 96-well plate (each well containing 0.15 ml of YNBD) resulting in a drug concentration of 128 μg/ml. Two-fold dilutions were then made from the top row to obtain final drug concentrations ranging from 128 to 0.06 μg/ml.
(§3) The yeast cultures, maintained on Sabouraud dextrose agar were transferred to YN broth (Difco) and incubated overnight at 35° C. with shaking (250 rpm). After incubation, each culture was diluted in sterile water to yield a final concentration of 1-5×10^6 colony forming units (CFU)/ml.
(§4) 96-well microplates were inoculated using a MIC-2000 (Dynatech) which delivers […] per well yielding a final inoculum per well of 1.5-7.5×10^3 cells. The microplates were incubated at 35° C. for 24 hours. The minimum inhibitory concentrations (MICs) were recorded as the lowest concentrations of drug showing no visible growth.
(§5) After recording the MIC, the plates were shaken to resuspend the cells. Thereafter, 1.5 μl samples from the wells in the 96-well microplate were transferred to a single well tray containing Sabouraud dextrose agar. The inoculated trays were incubated 24 hours at 28° C. and then read for minimum fungicidal concentration (MFC). MFC is defined as the lowest concentration of drug showing no growth or less than 4 colonies per spot.
A general note: Dilution methods test growth across graded concentrations, often in twofold steps.

Data set [2] concerns Candida tropicalis MY 1012. Described as above. Format: cell-based. The note with it: YNBD medium; MFC = lowest concentration showing no growth or less than 4 colonies per spot.
Description: as §1, §2, §3, §4, §5

Data set [3] relates to Candida albicans MY 1055. The experiment in a line: In vivo effectiveness: recoverable Candida CFU in kidneys of infected mice. The note with it: 0.4 mg/kg I.P. twice daily for four consecutive days; DBA/2 mice; kidneys after seven days. The procedure: Growth from an overnight SDA culture of Candida albicans MY 1055 was suspended in sterile saline and the cell concentration determined by hemacytometer count and the cell suspension adjusted to 3.75×10^5 cells/ml. Then 0.2 milliliter of this suspension was administered I.V. in the tail vein of mice so that the final inoculum was 7.5×10^4 cells/mouse.
The assay then was carried out by administering aqueous solutions of Compound I (R1 =--CH2 CH2 NH2) at various concentrations intraperitoneally (I.P.), twice daily (b.i.d.) for four consecutive days to 18 to 20 gram female DBA/2 mice, which previously had been infected with Candida albicans (MY 1055) in the manner described above. Distilled water was administered I.P. to C. albicans challenged mice as controls. After seven days, the mice were sacrificed by carbon dioxide gas, paired kidneys were removed aseptically and placed in sterile polyethylene bags containing 5 milliters of sterile saline. The kidneys were homogenized in the bags, serially diluted in sterile saline and aliquots spread on the surface of SDA plates. The plates were incubated at 35° C. for 48 hours and yeast colonies were enumerated for determination of colony forming units (CFU) per-gram of kidneys.

A further data set relates to Candida albicans MY 1750. Kind of data set: Minimum fungicidal concentration (MFC), separate similar experiment. In kind it is cell-based.
Description: as §1
In carrying out the assay, Compound I was solubilized in 10 percent dimethyl sulfoxide (DMSO) and diluted to 2560 μg/ml. The compound was then diluted to 256 μg/ml in YNBD. 0.15 mL of the suspension was dispensed to the top row of a 96-well plate (each well containing 0.15 ml of YNBD) resulting in a drug concentration of 128 μg/ml. Two-fold dilutions were then made from the top row to obtain final drug concentrations ranging from 128 to 0.06 μg/ml. […]
96-well microplates were inoculated using a MIC-2000 (Dynatech) which delivers […] per well yielding a final inoculum per well of 1.5-7.5×10^3 cells. […] The minimum inhibitory concentrations (MICs) were recorded as the lowest concentrations of drug showing no visible growth.
After recording the MIC, the plates were shaken to resuspend the cells. […] The inoculated trays were incubated 24 hours at 28° C. and then read for minimum fungicidal concentration (MFC). […]

The subject of another data set is human blood cells. The experiment in a line: Red blood cell lysis, minimum lytic concentration (MLC). Format: cell-based. Particulars: 2 hours at room temperature, lowest concentration giving complete or partial lysis, tested 400 to 0.20 μg/ml. From the text: A harmful and potentially fatal side reaction of a number of drugs including certain antibiotically active echinocandin compounds is red blood cell lysis. […] The blood cell lysis property may be seen in the determination carried out in the following manner.
The blood employed is a 4 percent suspension of freshly drawn heparinized blood prepared by adding 2 milliliters of blood to 50 milliliters of sterile 5 percent dextrose.
Compoufid I was solubilized in a small volume of dimethylsulfoxide (DMSO) that was then diluted with distilled water to a final concentration of 5 percent DMSO to obtain a drug solution of 4.0 mg/ml. A 0.2 milliliter amount of the drug solution was added to 1.4 milliliters of sterile 5 percent dextrose to obtain the test solution. A diluent control was also prepared.
A 96-well microtiter plate with a well volume of 0.35 ml was used for the assay. Columns 2-12 were filled with 150 µl of sterile 5 percent dextrose. Then, 300 μl of test solutions were dispensed into the wells in column 1 and serially two-fold diluted in 5 percent dextrose to yield final test concentrations of from 400 to 0.20 μg/ml. 38 μl of red blood cell suspension were added to each well, the plate was gently agitated to mix the well contents and incubated at room temperature for 2 hours, and thereafter observed to determine extent of hemolysis as indicated by complete or partial clearing (lysis).

For the next data set, the system named is Pneumocystis carinii. The experiment in a line: Pneumocystis carinii pneumonia in immunosuppressed rats, reduction of cysts. The note with it: subcutaneous, twice daily for four days. In kind it is in vivo, Sprague-Dawley rats. The procedure:
The compounds of the present invention may also be useful for inhibiting or alleviating Pneumocvstis carinii infections in immune compromised patients. […] Before drug treatment, two rats are sacrificed to confirm the presence of Pneumocystis carinii pneumonia (PCP). Five rats (weighing approximately 150 grams) are injected twice daily for four days subcutaneously (sc) with Compound I in 0.25 ml of vehicle (distilled water). A vehicle control is also carried out. All animals continue to receive dexasone in the drinking water and low protein diet during the treatment period. At the completion of the treatment, all animals are sacrificed, the lungs are removed and processed, and the extent of disease determined by microscopic examination of stained slides for the presence of cysts.
The dosage required for 90 percent reduction of cysts with representative compounds may be seen in the following table: […]

Consider “1-[4-hydroxy-5-aminoethyloxy-N^2 -(10,12-dimethyl-1-oxotetradecyl)ornithine]-5-(3-hydroxyglutamine)-6-(3-hydroxyproline) echinocandin B trifluoroacetate [--CH2 CH2 NH2 / DMTD]”, for which the “MFC C. albicans MY 1055” value in the data set on Candida albicans MY 1055 [1] turned out to be 0.125 µg/mL. In data set [2], the “MFC C. tropicalis MY 1012” value worked out at 0.25 µg/mL. The “reduction of recoverable Candida CFUs (kidneys)” value with Candida albicans MY 1055 [3] is listed as “greater than 99%”.
With “Glycylaminoethyloxy Ether as the Trifluoroacetate [--CH2 CH2 NHCOCH2 NH2 / DMTD]”, in the data set with Candida albicans MY 1055 [1], the “MFC C. albicans MY 1055” value is 1.0 µg/mL. The “MFC C. tropicalis MY 1012” value in data set [2] worked out at 0.5 µg/mL. For the same substance, the “MFC C. albicans MY 1750” value against Candida albicans MY 1750 is 0.50 µg/mL. In addition, the “MLC (minimum lytic concentration)” value in the data set on human blood cells was above 400 µg/mL. Also, the “dosage required for 90 percent reduction of cysts” value with Pneumocystis carinii stood at 0.04 mg/kg.

Source of the values: patent US5914313A, “1-[4-hydroxy-5-aminoethyloxy-N^2 -(10,12-dimethyl-1-oxotetradecyl)ornithine]-5-(3-hydroxyglutamine)-6-(3- hydroxyproline)echinocandin B, other aminoalkyl derivatives and salts thereof” (Merck & Co., Inc., priority 1993, dated 1999).
